Laboratory results from US12017992B2, “Compounds for modulating mitochondrial function” (Mayo Foundation for Medical Education and Research, priority 2015, dated 2024).
pEC50: −log10 of the molar value. Several values for one entry are separate records, joined by “and”; a condition that tells them apart may be missing. Identical values can stand only once. Entries after “also recorded” stand apart in the source; their conditions may differ. Like-named read-outs stand apart in the source and are kept apart here.

What was measured:
[1] = tested on: NAD+ and NADH levels; assay: NAD+ and NADH levels in primary embryonic cortical neurons (NAD+/NADH-GLO assay); assay type: cell-based, mouse; settings: among C687-C695; 100 nM, 2 μM and 5 μM
Method: FIGS. 14A and 14B are graphs plotting NAD^+ and NADH levels (FIG. 14A) or the NAD^+/NADH ratio (FIG. 14B) in primary embryonic cortical neurons after treatment with the indicated compounds. Neurons were seeded on 96-well plates at 30,000 cells per well. Seven days later, cells were treated with each compound at 2 μM. NAD^+ and NADH levels were measured 24 hours later using the bioluminescent NAD^+/NADH-GLO assay (Promega; Madison, WI). NAD^+ and NADH levels are expressed as a percent of vehicle treated (control) cells (FIG. 14A). All experiments were performed in 6 replicates.
FIGS. 18A-18C are graphs plotting the level of NAD+ (FIG. 18A), the level of NADH (FIG. 18B), and the ratio of NAD+/NADH (FIG. 18C) in primary embryonic cortical neurons that were seeded on a 96-well plate at 30,000 cells per well and treated seven days later with the indicated compounds at concentrations 100 nM, 2 μM and 5 μM. NAD+, NADH, and NAD+/NADH ratio were measured using a bioluminescent NAD+/NADH-GLO assay (Promega). All experiments were performed in 6 replicates.

[2] = tested on: MC65 cells; assay: Efficacy against Aβ toxicity in MC65 Tet on/off cells (MTT assay); assay type: cell-based; settings: for cell protective activity in Aβ-producing MC65 cells: 2.5 μM and 5 μM, compared to CP2; for pEC50: nonlinear regression
Method: FIGS. 4A and 4B are a pair of graphs plotting survival of MC65 cells after treatment with the indicated compounds, in the presence (Tet/off) or absence (Tet/on) of Aβ expression. MC65 cells were cultured for 72 hours in the presence (on) or absence (off) of tetracycline in OPTI-MEM media without serum. […] Cell viability was measured with an MTT assay 72 hours later. Experiments were performed in triplicates. Every 96-well plate had its own on/off control. Four experimental compounds were tested per each plate. Experiments were repeated independently twice.
(§1) FIGS. 5A and 5B are a pair of graphs plotting survival of MC65 cells after treatment with the indicated compounds, in the presence (Tet/off) or absence (Tet/on) of Aβ expression. MC65 cells were cultured for 72 hours in the presence (on) or absence (off) of tetracycline in OPTI-MEM media without serum. Cells (Tet/on and Tet/off) at the time of plating were treated every 24 hours with vehicle (0.05% final DMSO) or experimental compounds (FIG. 5A, C458-C461; FIG. 5B, C462-C465) at 2.5 μM and 5 μM. Cell viability was measured with an MTT assay 72 hours later. Experiments were performed in triplicates. Every 96-well plate had its own on/off control. Four experimental compounds were tested per each plate. Experiments were repeated independently twice.
as §1, with “FIG. 6A is” for “FIGS. 5A and 5B are”, “graph” for “pair of graphs”, “(C470-C473)” for “(FIG. 5A, C458-C461; FIG. 5B, C462-C465)”, “twice. […] Toxicity of C463 under the same experimental conditions is shown for comparison. Cells were treated with 5 μM of each compound.” for “twice.”
FIGS. 9A-9D are a series of graphs plotting the half maximal effective concentration (EC50) for each of four experimental compounds against Aβ toxicity in MC65 Tet on/off cells. FIG. 9A, C455; FIG. 9B, C458; FIG. 9C, C460; FIG. 9D, C472.
FIGS. 11A and 11B are graphs plotting survival of MC65 cells cultured for 72 hours in the presence (on; FIG. 11A) or absence (off, FIG. 11B) of tetracycline in OPTI-MEM media without serum. Cells (Tet/on and Tet/off) at the time of plating were treated with either vehicle (0.05% final DMSO) or experimental compounds at 2.5 μM every 24 hours. Cell viability was measured with an MTT assay 72 hours later. Experiments were performed in triplicate, and every 96-well plate had its own on/off control. Four experimental compounds were tested per plate. Experiments were repeated independently twice.
FIGS. 15A and 15B are graphs plotting percent survival of MC65 cells cultured in the presence of tetracycline (Tet-On) (FIG. 15A) or without tetracycline (Tet-off) (FIG. 15B) in OPTI-MEM media without serum. […] Cell viability was measured with an MTT assay 72 hours after plating. Experiments were performed in triplicate, and were repeated independently twice.
The efficacy of all 24 compounds against Aβ toxicity was evaluated in MC65 cells. […] The viability of MC65 cells expressing Aβ (Tet/off, 40% viability) or not expressing Aβ (Tet/on, 100% viability) was measured after treatment with individual compounds. Results for all 24 compounds against Aβ toxicity are presented in FIGS. 4A, 4B, 5A, 5B, 6A, and 6B.
To further characterize the efficacy of these four compounds, the half maximal effective concentration (EC50) against Aβ toxicity in MC65 cells was measured using an MTT assay. […]

[3] = PK of C458 in mice, plasma and brain by LC-MS/MS; assay type: in vivo, mouse; settings: for Brain Concentration / Plasma Concentration / concentration at 0.5 h / concentration at 1 h / concentration at 2 h: single mouse; for concentration at 0.5 h / concentration at 1 h / concentration at 2 h / half-life / Kp: mouse; for concentration at 0.5 h / concentration at 1 h / concentration at 2 h: 2 mg/kg
Method: FIG. 10 is a graph plotting the elimination rate for C458 in brain and plasma of mice treated with 2.5 mg/kg of the compound via intrafemoral vein injection. Animals were sacrificed at 30 minutes, 1 hour, and 2 hours post injection.
The feasibility of developing the C458 series was evaluated by determining the in vivo PK profile for C458. Re-synthesized C458 was administered intravenously to wild type mice at 2 mg/kg. Frozen serum and brain tissue samples were analyzed using a bioanalytical LC-MS/MS method.
A rough estimation of elimination rate and half-life of C458 was determined in vivo by delivering a dose of 2.5 mg/kg to each mouse via intrafemoral vein injection. Each group of animals (n=2) was sacrificed at 30 minutes, 1 hour, and 2 hours post injection. Blood and brain tissue was collected, flash frozen, and the concentration of C458 was estimated using a LC-MS/MS assay with a linear calibration curve from 1 ng/ml to 1 ug/ml in both plasma and brain.
For rough estimation of elimination rate and half-life, a one-compartment model and the first rate elimination was assumed. Plotting (Ln) of concentration vs. time provided the elimination rate and half-life of C458 in plasma and the brain (FIG. 10).

[4] = tested on: ATP production; assay: ATP levels in primary embryonic cortical neurons; assay type: cell-based, mouse; settings: 10 nM to 5 μM, 24 hours
Method: FIGS. 12A and 12B are a pair of graphs plotting ATP levels in primary embryonic cortical neurons that were seeded on 96-well plates at 30,000 cells per well and treated with the indicated compounds at concentrations ranging from 10 nM to 5 μM, as indicated. ATP levels were measured 24 hours later using an ATP determination Kit (Life Technologies; Carlsbad, CA). ATP levels are expressed as a percent of vehicle treated (control) cells. All experiments were performed twice in 6 replicates.
FIG. 17 is a graph plotting ATP levels in primary embryonic cortical neurons after seeding on a 96-well plate at 30,000 cells per well and being treated seven days later with the indicated compounds at concentrations of 100 nM, 2 μM, and 5 μM. ATP levels were measured 24 hours after treatment using the bioluminescent CellTiter-GLO 2 assay (Promega, Madison, WI). All experiments were performed in 6 replicates.
To further characterize these nine new compounds, Complex I activity was measured in isolated mitochondria, and levels of ATP, NAD+, and NADH were measured in primary mouse embryonic cortical neurons (FIGS. 16-18).

[5] = In vivo toxicity and histology of C458 in WT mice; design: species or system mouse; settings: 50 mg/kg for one month ad libitum in drinking water
Method: To evaluate the toxicity of C458 in vivo, 2-month old breeding WT mice were treated with 50 mg/kg of C458 via drinking water. Untreated littermates were used as controls. After one month of treatment, adult and newborn animals were sacrificed and tissue was collected for histological examination.

[6] = tested on: cancer cell lines (HeLa, Panc1, p53−/− ms TCL, Patu, Su); assay: Survival of cancer cell lines (MTT assay); assay type: cell-based, human; settings: 5 μM or 50 μM, particularly at the higher dose
Text: (§2) FIGS. 20A-20G are a series of graphs plotting the effect of the indicated compounds on survival of various cancer cells vs. control. FIG. 20A, HeLa cervical cancer cells; FIG. 20B, Panc1 pancreatic cancer cells; FIG. 20C, P-WT: mouse embryonic fibroblasts (MEFs; control); FIG. 20D, P++: MEFs; FIG. 20E, p53−/− ms T-cell lymphoma (TCL) cells; FIG. 20F, Patu pancreatic cancer cells; FIG. 20G, Su pancreatic cancer cells.
(§3) The following […] cell lines were used: HeLa (cervical cancer, FIG. 20A); Panc1 (pancreatic cancer, FIG. 20B); P-WT MEFs (control, FIG. 20C), P++ MEFs (accelerated aging phenotype, FIG. 20D) p53−/− ms TCL (FIG. 20E); Patu (pancreatic cancer, FIG. 20F), and Su (pancreatic cancer, FIG. 20G).

[7] = tested on: P++ MEFs (accelerated aging phenotype); assay: Growth of P++ mouse embryonic fibroblasts (MTT assay); assay type: cell-based; settings: 5 μM or 50 μM
Text: as §2, §3

[8] = Comment on salt form (Table 3); assay type: physicochemical; settings: TFA salt

Cc1cccc(O[C@@H]2CCC[C@H](C(C)CN(Cc3ccncc3)C(C)C)C2)c1 (stereo partly drawn) [Compound C694]
efficacy in increasing NADH and decreasing NAD+/NADH ratio [1]: highest efficacy

Cc1cccc(O[C@@H]2CCC[C@H](C(C)CNCc3ccncc3)C2)c1 (relative stereo) [Compound C458, cis-(N-(pyridin-4-ylmethyl)-2-(3-(m-tolyloxy)cyclohexyl)propan-1-amine)]
cell protective activity in Aβ-producing MC65 cells ([2]; 72 hours): promising cell protective activity | fold higher efficacy (lower EC50) of C458 than CP2 ([2]; EC50 against Aβ toxicity): 20- to 30 fold and 30 fold | fold higher efficacy of C458 than C455 and C460 ([2]; EC50 against Aβ toxicity): 100 fold | pEC50 ([2]; MC65, MTT assay): ~8.40 | pEC50 ([2]; MTT assay): 8.44 | Brain Concentration ([3]; 0.5 hr): 390 ng/g | Plasma Concentration ([3]; 0.5 hr): 41.4 ng/mL | Brain Concentration ([3]; 1 hr): 149 ng/g | Plasma Concentration ([3]; 1 hr): 15.2 ng/mL | Brain Concentration ([3]; 2 hr): 76.4 ng/g | Plasma Concentration ([3]; 2 hr): 10.3 ng/mL | bioavailability ([3]; from elimination rate and half-life in plasma and brain): good bioavailability | CNS penetration ([3]; mice, intravenous): significant CNS penetration; also recorded: penetrates the blood brain barrier and accumulates in the brain | concentration at 0.5 h ([3]; brain, intravenous, 0.5 hr, read-out: Brain Concentration): 316 ng/g | concentration at 1 h ([3]; brain, intravenous, 1 hr, read-out: Brain Concentration): 118 ng/g | concentration at 2 h ([3]; brain, intravenous, 2 hr, read-out: Brain Concentration): 68.2 ng/g | half-life ([3]; brain, intravenous, 2.5 mg/kg intrafemoral vein injection, one-compartment model, first rate elimination, read-out: estimated half-life in brain): 42 min | Kp ([3]; brain, intravenous, 2.5 mg/kg intrafemoral vein injection, read-out: concentration in the brain, times higher than in plasma): 7 to 8 | Kp ([3]; brain, iv, wild type mice, intravenously at 2 mg/kg, read-out: concentration in brain tissue, times higher (w/v) than in plasma): 7 to 10 | concentration at 0.5 h ([3]; plasma, intravenous, 0.5 hr, read-out: Plasma Concentration): 43.7 ng/mL | concentration at 1 h ([3]; plasma, intravenous, 1 hr, read-out: Plasma Concentration): 13 ng/mL | concentration at 2 h ([3]; plasma, intravenous, 2 hr, read-out: Plasma Concentration): 9.83 ng/mL | half-life ([3]; plasma, intravenous, 2.5 mg/kg intrafemoral vein injection, one-compartment model, first rate elimination, read-out: estimated half-life in plasma): 48 min | half-life ([3]; serum, iv, wild type mice, intravenously at 2 mg/kg, read-out: apparent t1/2 in the blood): 48 min | effect on ATP production [4]: modestly reduced ATP production | histology of adult WT mice [5]: did not cause histological abnormalities | pathology of newborn mice conceived by treated breeding WT mice [5]: no pathological abnormalities were detected

Cc1cc2c(c(=O)o1)C=C1CCN(C(C)CCc3ccc(O)cc3)C[C@@H]1O2 (stereo partly drawn) [Compound C455]
cell protective activity in Aβ-producing MC65 cells ([2]; 72 hours): promising cell protective activity | growth of cancer cell lines [6]: suppressed growth of the cancer cell lines tested | growth of P++ MEFs [7]: suppress the growth | effect on ATP production [4]: modestly reduced ATP production

Cc1cccc(O[C@@H]2CCC[C@H](C(C)CN(C)Cc3ccncc3)C2)c1 (stereo partly drawn) [Compound C693]
efficacy in increasing NADH and decreasing NAD+/NADH ratio [1]: highest efficacy

Cc1cccc(O[C@@H]2CCC[C@H](C(C)CNCc3ccncc3)C2)c1 (stereo partly drawn)
Comments (salt form) [8]: Highly hygroscopic

Cc1cc2c(c(=O)o1)C=C1CCN(C(=O)Cc3cccc(O)c3)C[C@@H]1O2 [Compound C460]
cell protective activity in Aβ-producing MC65 cells ([2]; 72 hours): promising cell protective activity | efficacy against Aβ toxicity (representative images, FIG. 6B) ([2]; 5 μM, 72 hours, Tet/on and Tet/off): efficacy | growth of cancer cell lines [6]: suppressed growth of the cancer cell lines tested | growth of P++ MEFs [7]: suppress the growth | effect on ATP production [4]: little or no effect
